According to US20260191811A1, “COMBINATION OF CANNABIDIOL AND A PPAR AGONIST” (priority 2020, published 2026):

Legend:
[1] = system: dopamine neurons in the ventral tegmental area (VTA); assay: Electrophysiology: VTA dopamine neuron recording after intra-NAc infusion; assay type: in vivo, rats
Experimental: Three experiments were run of this type. All included a vehicle. In addition, the components were as follows: • Experiment 1: • 100 ng CBD; 100 ng CBD+100 ng T007; 100 ng T007 • Experiment 2: • 50 ng CBD; 0.5 nmol n−3; 50 ng CBD+0.5 nmol n−3 • Experiment 3: • 1 ng CBD; 0.25 nmol n−3; 1 ng CBD+0.25 nmol n−3; 1 ng CBD+0.25 nmol n−3+100 ng T007 • In the above: • CBD=cannabidiol • T007=T0070907 (PPARg antagonist) • n−3=omega-3
The omega-3 formulation includes equal amounts of DHA and EPA. Two doses were used in this study. 0.5 nmol n−3 is made up of 0.5 nmol DHA and 0.5 nmol EPA. 0.25 nmol n−3 is made up of 0.25 nmol DHA and 0.25 nmol EPA.
In this procedure, rats were anesthetized with urethane. An electrode was used to record the baseline frequency of dopamine neurons in the ventral tegmental area (VTA) for 5 minutes. After the baseline recording, combinations of CBD, omega-3, and T007 (a PPARg antagonist) were infused into the nucleus accumbens (NAc).
The post-infusion frequency of that neuron was compared to its pre-infusion frequencies.
One of the characteristics of dopamine cells is that they have a tonic mode of firing and a burst mode of firing. Therefore, both the frequency and burst changes following infusions were analyzed. FIG. 1 looks at the frequency of VTA dopamine cells. The Y-axis is frequency (% Baseline). […] This means that after an intra-NAc infusion of 100 ng CBD, the dopamine cell would decrease in frequency about 15%.
FIG. 2 looking at difference in burst percentage. A burst is a group of signals occurring in a short period of time. Specifically, in this experiment, a burst is defined to be an event where 2 spikes occur within a timespan of 80 ms. […] As such, the number of bursts that occurred during pre-infusion was recording and the number of spikes that occurred in those bursts was determined. The number of those spikes occurring in those bursts was divided by the total number of spikes that occurred during the pre-infusion recording The same was done for the post-infusion recording and the difference between these 2 values was determined.

rats [2] = assay: Elevated plus maze; assay type: in vivo; conditions: intra-NAc; for number of entries into the open arms: Experiment 3, FIG. 13
Experimental: In these experiments, the following was measured: • 1. Time in open arms • 2. Entries into open arms
In these experiments, the apparatus of FIG. 7 was used.
As shown, the apparatus includes 2 open arms and 2 closed arms that form a plus shape. Rats feel more secure in closed spaces and thus it would be expected that more anxious rats would spend more time in the closed arms and less time on the open arms.
Before each test, the same doses of drugs used in the electrophysiology experiments were infused.
The rat was then placed in the middle of the apparatus, facing into the closed arms and recorded for 10 minutes.
The number of entries into the open arms and the total time spent in the open arms was recorded. Less anxious rats would be expected to make more entries into the open arms and spend more time there as well.

rats [3] = assay: Light dark box; assay type: in vivo; conditions: for time to make the second transition back into the light box: Experiment 1, FIG. 16, 100 ng T007
Experimental: In these experiments, the following was measured: • 1. First transition to the dark box • 2. Second transition to the light box • 3. Total number of transitions • 4. Time spent in the light box
One half of the box is open at the top and is brightly lit. There is an opening to the dark-box that is covered by a lid.
Rats would prefer to be in the dark box and would be anxious about going into the light box.
Following the infusion, the rate is placed in the light box facing away from the opening to the dark box. A 10 minute recording is made. During these 10 minutes, measurements are made of four things: • 1. The time it takes for the rat to make the first transition into the dark box • 2. The time it takes for the rat to make the second transition from the dark box back into the light box • 3. Number of transitions between boxes • 4. Time spent in light box
Therefore, it would be expected than less anxious rats would take a longer time to make the first transition into the dark box, spend less time to make the second transition into the light box, make more transitions between boxes, and spend more time in the light box.

rats [4] = assay: Olfactory fear conditioning; assay type: in vivo; conditions: Experiment 3, FIG. 36, 1 ng CBD, 0.25 nmol omega-3
Source text: The olfactory fear conditioning protocol is for measurement of the formation of fear memory. This protocol lasts three days. On day 1, the rat is habituated to two boxes (one with a striped background and one with a polka dot back ground).
On day 2, the rat receives a drug infusion and is placed into one of the boxes (previously assigned as the “shock box”). While in the box, the rat is exposed to 2 odours (peppermint and almond). The rat is exposed to one odour followed by the other odour 5 times. One of these odours were previously assigned as the “shock” odour (CS+) such that after exposure to the “shock” odour, the rat would receive a foot shock. There was no foot shock following exposure to the “safe” odour (CS−). On day 3, the rat was placed in the safe box. They were exposed to each odour (both CS+ and CS−) one at a time for 5 minutes. During the 5 minutes, freezing behaviour was recorded.
It would be expected that CBD would block the formation of fear memory and the rats would freeze a similar amount to CS+ and CS−.
2-way repeated measures ANOVA was performed for the three experiments. With reference to FIG. 34, there was no significant interaction effect by group x CS (p=0.209).

[5] = Experiment 3, FIG. 5, 1 ng CBD, 0.25 nmol omega-3, 1 ng CBD+0.25 nmol omega-3, combination+100 ng T007, intra-NAc, compared to vehicle
[6] = Experiment 3, FIG. 12, 1 ng CBD, 0.25 nmol omega-3, combination, combination+100 ng T007
[7] = 1 ng CBD, 0.25 nmol omega-3, combination, combination+100 ng T007
[8] = 100 ng CBD, 100 ng CBD+100 ng T007
[9] = Experiment 3, FIG. 24, 1 ng CBD, 0.25 nmol omega-3, combination, combination+100 ng T007
[10] = first experiment, FIG. 17, 100 ng CBD, 100 ng CBD+100 ng T007
[11] = first experiment, FIG. 18, 100 ng CBD, 100 ng CBD+100 ng T007

With `O=C(Nc1ccncc1)c1cc([N+](=O)[O-])ccc1Cl` [T007] the VTA dopamine activity [1, 5] was “blocked”, the “time spent in open arms” value (rats [2]; [6]) was “blocked” and the “number of entries into the open arms” value (rats [2]; [7]) was “blocked”. For the same compound, the “time to make the second transition back into the light box” value (rats [3]; [8]) was “blocked”, the “time to make the second transition” value (rats [3]; [9]) was “blocked” and the “number of transitions between boxes” value (rats [3]; [10]) was “blocked”. The “time spent in the light box” value (rats [3]; [11]) was “blocked” and the “difference between the freezing time to CS+ and CS− (fear memory formation)” value (rats [4]; combination, combination+100 ng T007) was “blocked slightly”.

In the case of `C=C(C)[C@@H]1CCC(C)=C[C@H]1c1c(O)cc(CCCCC)cc1O` [CBD, cannabidiol], the “frequency (% Baseline) of VTA dopamine cells” value ([1]; Experiment 1, FIG. 1, 100 ng CBD intra-NAc infusion, post- vs pre-infusion) was “about 85%”, the VTA dopamine frequency ([1]; Experiment 1, FIG. 1, 100 ng CBD, 100 ng CBD+100 ng T007, 100 ng T007, intra-NAc) was “decreasing trend” and the “decrease in frequency of the dopamine cell” value ([1]; Experiment 1, FIG. 1, after intra-NAc infusion of 100 ng CBD) was “about 15%”. The “difference in burst percentage (VTA DA bursts)” value ([1]; Experiment 1, FIG. 2, 100 ng CBD, 100 ng CBD+100 ng T007, 100 ng T007, intra-NAc) was “very slight decrease”, the VTA dopamine activity ([1]; Experiment 2, FIG. 3, 50 ng CBD, 0.5 nmol omega-3, 50 ng CBD+0.5 nmol omega-3, intra-NAc) was “ineffective” and the VTA dopamine activity [1, 5] was “not different from vehicle”. For the same compound, the “time spent in open arms” value (rats [2]; Experiment 1, FIG. 8, 100 ng CBD, 100 ng CBD+100 ng T007, 100 ng T007, 10 minutes) was “slight increase”, the “number of entries into open arms” value (rats [2]; Experiment 1, FIG. 9, 100 ng CBD, 100 ng CBD+100 ng T007, 100 ng T007, 10 minutes) was “slight increase” and the “time spent in open arms” value (rats [2]; Experiment 2, FIG. 10, 50 ng CBD, 0.5 nmol omega-3, 50 ng CBD+0.5 nmol omega-3) was “not effective”. For the same compound, the “number of entries into open arms” value (rats [2]; Experiment 2, FIG. 11, 50 ng CBD, 0.5 nmol omega-3, 50 ng CBD+0.5 nmol omega-3) was “not effective”, the “time spent in open arms” value (rats [2]; [6]) was “ineffective” and the “number of entries into the open arms” value (rats [2]; [7]) was “not effective”. The “time to make the second transition back into the light box” value (rats [3]; [8]) was “significantly decreased”, the “time to make the second transition” value (rats [3]; Experiment 2, FIG. 20, 50 ng CBD, 0.5 nmol omega-3, 50 ng CBD+0.5 nmol omega-3) was “not effective” and the “time to make the second transition” value (rats [3]; [9]) was “ineffective”. For the same compound, the “number of transitions between boxes” value (rats [3]; Experiment 3, FIG. 25, 1 ng CBD, 0.25 nmol omega-3, 1 ng CBD+0.25 nmol omega-3) was “ineffective”, the “time spent in the light box” value (rats [3]; Experiment 3, FIG. 26, 1 ng CBD, 0.25 nmol omega-3, 1 ng CBD+0.25 nmol omega-3) was “ineffective” and the “number of transitions between boxes” value (rats [3]; [10]) was “significantly increased”. For the same compound, the “time spent in the light box” value (rats [3]; [11]) was “significantly increased” and the “freezing time compared to vehicle” value (rats [4]; 1 ng CBD+0.25 nmol omega-3) was “not different from vehicle”.
